From patent publication US6670329B2, “Selenocosmia huwena toxin and analgesic uses thereof” (priority 2000, dated 2003) come the findings set out here.

“And” between values parts separate entries of the source, which are not always exact repeats. Equal entries are not always repeated.

One may read the EC50 as the concentration giving half of the maximal effect.

One data set deals with Sprague-Dawley rats. As to conditions: rat, in vivo. As for the experimental part:
Adult Sprague-Dawley rats were anesthetized with 2% sodium pentobarbital (40 mg/kg, ip.). The neck skin was cut to expose the occipital membrane. HWAP-I, formulated in normal saline, was administered by a PE-10 polyethylene tube (14 cm) inserted into the epidural space (depth of insert: 7 cm) to the site of intumescence at the rats' waist. The insertion position of the tube was confirmed by anatomization after the experiment.
Pain tolerance assays were performed 1-4 days after the operation. A healthy rat was put into a fixed canister with its tail drooping from the bottom of the vessel. There were three spots on the tail labeled for irradiation. The intensity of light was adjusted so that the tail flick latency (TFL) of rat was within 2-4 seconds. The average of TFLs determined three times before drug treatment was deemed the baseline pain threshold of the rat. HWAP-I was administered to the rat using the inserted tube. After 20 minutes, the pain threshold was determined. The analgesic effect (AE) was calculated according the following formula: [formula]
wherein Tp is the TLF post-drug treatment, and TB is the baseline pain threshold.
The upper limit of the increased rate of pain threshold was 200% in order to avoid hurting the skin of rat-tail, e.g.., when the baseline pain threshold was 3 seconds. Irradiation was stopped as soon as the TFL exceeded 9 seconds.
54 rats (160-220 g), of either gender, whose TB basic pain thresholds were within 3-4 seconds, were chosen and divided randomly into six groups of nine rats. The rats in each group were treated with HWAP-I at a dose of 120 μg/kg, 180 μg/kg, 240 μg/kg, 300 μg/kg, 360 μg/kg respectively and with normal saline in control group.

The next data set relates to rats. Put plainly: rat tail flick pain threshold, subarachnoid space administration. As to conditions: for increase of pain threshold: in an hour. The class given is in vivo. On the procedure: The method was testing using the rat experimental system. After anesthesia, the neck skin of a rat was cut. The occcipital membrane was exposed and a hole with 1 mm diameter was made with #5 needle. […] The insertion position of the tube was later confirmed by anatomization after experiment.
Assays were performed in 1-3 days after the operation. 28 rats (130-230 g), of either gender, whose basic pain thresholds were within 2-4 seconds, were chosen and divided randomly into four groups of seven rats.

For data set [1], the system named is low-voltage-activated Ca2+ channel. Put plainly: Ca2+ channel inhibition assay, low-voltage-activated channel. It is filed as cell-based. As for the experimental part:
(§1) Ca^2+ channel Inhibition Assay. […] Cells were cultured in 90% Dulbecco's modified Eagle's medium (DMEM) with 10% newborn calf serum, hypoxanthine aminopterin thymidine supplement and penicillin-streptomycin. Cells were transferred to plates for electrophysiological experiments and cultured with 1% calf serum and […] DMEM. Prostaglandin E1 (10 μM) and 3-isobutyl-1-methylxanthine (50 μM) were added to the medium. Macroscopic Ca^2+ channel currents (filtered at 10 kHz, digitized at […] with a EPC-9 patch clamp amplifier, HEKA Electronics, Germany) were recorded at room temperature using Ba^2+ as the charge carrier. Cells were held at −40 mV potential and then depolarized to 0 mV. […] Inhibition was dose dependent. The EC50 for inhibition was approximately 100 nM (EC50≈100 nM). HWAP-I is highly specific for this channel as the low-voltage-activated Ca^2+ channel was unaffected.

The subject of another data set is New Zealand rabbits. As to conditions: rabbit, in vivo.
For data set [2], the system named is high-voltage-activated Ca2+ channel expressed in prostaglandin E1 differentiated NG108-15 cells. In words: Ca2+ channel inhibition assay (patch clamp, Ba2+ as charge carrier). The class given is cell-based. On the procedure: as §1
(In general: Patch clamp records ionic current or voltage across a cell membrane.)

Data set [3] concerns mouse phrenic nerve-diaphragm preparation. Put plainly: mouse phrenic nerve-diaphragm assay for inhibition of neuromuscular transmission.

Consider `CN1CC[C@]23c4c5ccc(O)c4O[C@H]2[C@@H](O)C=C[C@H]3[C@H]1C5.Cl` [morphine, morphine hydrochloride, reference compound], for which the “analgesic effect decreased from maximum to, within a single hour” value with Sprague-Dawley rats is 50%.

Consider “NH2-Ala-Cys-Lys-Gly-Val-Phe-Asp-Ala-Cys-Thr-Pro-Gly-Lys-Asn-Glu-Cys -Cys-Pro-Asn-Arg-Val-Cys-Ser-Asp-Lys-His-Lys-Trp-Cys-Lys-Trp-Lys-Leu-COOH (H-ACKGVFDACTPGKNECCPNRVCSDKHKWCKWKL-OH; cysteine pairing not given here) [HWAP-I]”, for which the “duration of analgesic effect compared with morphine hydrochloride (5 μg/kg)” value with rats (subarachnoid) was “longer than that of morphine”. Besides, the “increase of pain threshold” value in the data set on rats (subarachnoid, 1.5 μg/kg) was 40-50%. Moreover, in the data set on rats (subarachnoid, 3.0 μg/kg), the “duration of analgesic effect” value was “over 3 hours” and the “increase of pain threshold” value turned out to be 100%. In the data set with rats (subarachnoid, 8 μg/kg, most restored to normal without sequela), the adverse effects entry is listed as “becoming ataxic in the quarters”. Further, the analgesic effect entry in the data set with rats (subarachnoid, 0.6, 1.5, 3.0 μg/kg) was “had analgesic effects”. For the same molecule, in the data set on Sprague-Dawley rats, the adverse effects entry was “ataxia in the quarters”; the analgesic effect result is recorded as “had analgesic effects”; the “duration time of analgesic effect” value is “over 3 hours”; the “increase of pain threshold” value was 50-70% and 100%. Moreover, the “effect on low-voltage-activated Ca2+ channel” value in data set [1] is “unaffected”. For the same molecule, in the data set with New Zealand rabbits, the “analgesic effect in formalin pain model” value is “potent and robust analgesic effect”; the “duration of the analgesic effect” value lay in the range of 5 to 6 h; the toxic side effects result is recorded as “no obvious toxic side effects were observed”. The “inhibition of the Ca2+ current” value in data set [2] (10 μM, held at −40 mV, depolarized to 0 mV) was “potent inhibitor”. Besides, the EC50 in data set [2] (NG108-15 cells, room temperature, read-out: EC50 for inhibition of Ca2+ current) was around 100 nM. Also, in data set [3] (1·10^−5 g/ml), the “duration of block of neuromuscular transmission” value was 14.3 ± 3.2 min. In addition, the “effect on indirect twitch response” value in data set [3] (electrical stimulation of phrenic nerve) is recorded as “inhibition of the indirect twitch response”.
